Where two headings read alike, the source gives them in different places.
Columns and labels:
[1] = target: T1, PSMA (Homo sapiens (Human), UniProt Q04609); test: NAALADase assay: PSMA inhibitory activity, fluorescence-based Amplex Red Glutamic Acid assay, lysates of LNCaP cell extracts; format: biochemical
Protocol: Briefly, lysates of LNCaP cell extracts (25 μL) were incubated with the inhibitor (12.5 μL) in the presence of 4 μM N-acetylaspartylglutamate (NAAG) (12.5 μL) for 120 min. The amount of the glutamate released by NAAG hydrolysis was measured by incubating with a working solution (50 μL) of the Amplex Red Glutamic Acid Kit for 60 min. […] Assays were performed in triplicate. Data analysis was performed using GraphPad Prism version 4.00 for Windows (GraphPad Software, San Diego, Calif.).

[2] = target: T1, PSMA; conditions: from Chen, 2008; read-out: Ki, PSMA inhibition; cited from earlier work
[3] = target: T1, PSMA; conditions: cited from earlier work; for blood pool and salivary / lacrimal gland uptake in clinical PET imaging: patients
[4] = Table 3, Cheng-Prusoff conversion, read-out: Ki

T1 sequence (Q04609 whole entry): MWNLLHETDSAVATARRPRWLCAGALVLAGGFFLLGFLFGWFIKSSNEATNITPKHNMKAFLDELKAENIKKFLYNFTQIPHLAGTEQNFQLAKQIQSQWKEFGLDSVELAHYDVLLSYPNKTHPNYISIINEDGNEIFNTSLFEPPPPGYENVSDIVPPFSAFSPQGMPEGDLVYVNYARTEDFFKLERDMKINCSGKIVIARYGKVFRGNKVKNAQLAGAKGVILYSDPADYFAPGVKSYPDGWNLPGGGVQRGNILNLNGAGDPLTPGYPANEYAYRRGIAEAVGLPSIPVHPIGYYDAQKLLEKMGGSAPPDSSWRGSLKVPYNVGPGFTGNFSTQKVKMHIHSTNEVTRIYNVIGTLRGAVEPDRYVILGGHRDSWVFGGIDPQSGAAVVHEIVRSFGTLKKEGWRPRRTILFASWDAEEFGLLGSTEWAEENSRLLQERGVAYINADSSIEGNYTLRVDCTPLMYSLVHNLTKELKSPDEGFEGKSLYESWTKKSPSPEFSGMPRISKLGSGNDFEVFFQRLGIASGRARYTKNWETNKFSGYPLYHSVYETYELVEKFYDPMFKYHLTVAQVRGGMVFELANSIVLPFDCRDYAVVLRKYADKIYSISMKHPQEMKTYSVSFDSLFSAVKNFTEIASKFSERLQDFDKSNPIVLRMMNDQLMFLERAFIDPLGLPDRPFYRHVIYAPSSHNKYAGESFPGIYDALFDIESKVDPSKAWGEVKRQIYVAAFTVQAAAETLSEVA

IC50 ([1]; Table 3) [nM] | Ki [1, 4] [nM] | Compound | also measured
210 | 42 | O=C(O)CC[C@H](NC(=O)O[C@@H](CCCCNC(=O)c1ccc(F)cc1)C(=O)O)C(=O)O [XY-20, (S)-2-(((((S)-1-carboxy-5-(4-fluorobenzamido)pentyl)oxy)carbonyl)amino)pentanedioic acid] | reduction in binding affinity compared to 9 (YC-I-26) [1]: more than 150 fold
60 | 12 | O=C(O)CC[C@H](NC(=O)O[C@@H](CCCCNC(=O)c1ccc2ccccc2c1)C(=O)O)C(=O)O [XY-21] | –
30 | 6 | COc1ccc(-c2ccc(C(=O)NCCCC[C@H](OC(=O)N[C@@H](CCC(=O)O)C(=O)O)C(=O)O)cc2)cc1 [XY-23] | –
120 | 22 | O=C(O)CC[C@H](NC(=O)O[C@@H](CCCCNC(=O)c1ccc(-c2ccc(OCCF)cc2)cc1)C(=O)O)C(=O)O [XY-24] | –
660 | 130 | CC(=O)Nc1ccc(C(=O)NCCCC[C@H](OC(=O)N[C@@H](CCC(=O)O)C(=O)O)C(=O)O)cc1 [XY-29] | –
43000 | 9.7 | O=C(O)CC[C@H](NC(=O)NC[C@H](NC(=O)c1ccc(F)cc1)C(=O)O)C(=O)O [XY-34] | –
8000 | 1600 | O=C(O)CC[C@H](NC(=O)NC[C@H](NC(=O)CCCNC(=O)c1ccc(F)cc1)C(=O)O)C(=O)O [XY-35] | –
1.3 | 0.26 | CSc1ccc(C(=O)NCCCC(=O)N[C@H](CNC(=O)N[C@@H](CCC(=O)O)C(=O)O)C(=O)O)cc1 [XY-40] | –
86 | 13 | O=C(O)CC[C@H](NC(=O)O[C@@H](CCCCNC(=O)c1ccc(-c2ccccc2)cc1F)C(=O)O)C(=O)O [XY-42] | –
1.6 | 0.32 | O=C(O)CC[C@H](NC(=O)O[C@@H](CCCCNC(=O)c1ccc(I)cc1F)C(=O)O)C(=O)O [XY-43] | –
2 | 0.4 | O=C(O)CC[C@H](NC(=O)NC[C@@H](NC(=O)CCCNC(=O)c1ccc(-c2ccccc2)cc1F)C(=O)O)C(=O)O [XY-46] | –
192 | 38 | O=C(O)CC[C@H](NC(=O)O[C@@H](CCCCNC(=O)c1ccc(Cl)cc1F)C(=O)O)C(=O)O [XY-49] | –
3800 | 770 | O=C(O)CC[C@H](NC(=O)O[C@@H](CCCCNC(=O)c1ccc(I)cc1OCCCCNC(=O)c1ccc(I)cc1)C(=O)O)C(=O)O [XY-50] | –

Further lines, the molecule ahead of its results:

Compound | IC50 ([1]; Table 3) [nM] | Ki [1, 4] [nM] | also measured
O=C(O)CC[C@H](NC(=O)N[C@@H](CSCc1ccc(I)cc1)C(=O)O)C(=O)O [DCIBC, reference compound] | – | – | Ki ([1]; Table 4, read-out: Ki): 0.03 nM
O=C(O)CC[C@H](NC(=O)O[C@@H](CCNC(=O)c1ccc(F)cc1)C(=O)O)C(=O)O [XY-16] | 4500 | 900 | –
O=C(O)CC[C@H](NC(=O)O[C@H](CCNC(=O)c1ccc(F)cc1)C(=O)O)C(=O)O [XY-17] | 4900 | 980 | –
COc1ccc2cc(C(=O)NCCCC[C@H](OC(=O)N[C@@H](CCC(=O)O)C(=O)O)C(=O)O)ccc2c1 [XY-22] | 104 | 20 | –
O=C(O)CC[C@H](NC(=O)O[C@@H](CCCCNC(=O)c1ccc(I)cc1)C(=O)O)C(=O)O [XY-26] | 4.3 | – | Ki ([1]; read-out: Ki, PSMA inhibition): 0.9 nM
COc1ccc(C(=O)NCCCC[C@H](OC(=O)N[C@@H](CCC(=O)O)C(=O)O)C(=O)O)cc1 [XY-27] | 100 | 21 | –
CSc1ccc(C(=O)NCCCC[C@H](OC(=O)N[C@@H](CCC(=O)O)C(=O)O)C(=O)O)cc1 [XY-28] | 24 | 4.8 | –
CNC(=O)c1ccc(C(=O)NCCCC[C@H](OC(=O)N[C@@H](CCC(=O)O)C(=O)O)C(=O)O)cc1 [XY-30] | 1300 | 270 | –
O=C(O)CC[C@H](NC(=O)O[C@@H](CCCCNC(=O)c1ccc(SCCF)cc1)C(=O)O)C(=O)O [XY-38] | 41 | 8.3 | –
O=C(O)CC[C@H](NC(=O)O[C@@H](CCCCNC(=O)c1ccc(SCc2ccc(F)cc2)cc1)C(=O)O)C(=O)O [XY-39] | 46 | 9.3 | –
O=CO[C@@H](CNC(=O)N[C@@H](CCC(=O)O)C(=O)O)NC(=O)CCCNC(=O)c1ccc(I)cc1F [XY-44] | – | – | Ki ([1]; Table 4, read-out: Ki): 0.017 nM; Ki ([1]; read-out: Ki, PSMA inhibition): 0.02 nM
O=CO[C@@H](CNC(=O)N[C@@H](CCC(=O)O)C(=O)O)NC(=O)CCCNC(=O)c1ccc(C2=CCCCC2)cc1F [XY-45] | – | – | Ki ([1]; Table 4, read-out: Ki): 0.1 nM
Cc1cc(Br)ccc1C(=O)NCCCC(=O)N[C@H](CNC(=O)N[C@@H](CCC(=O)O)C(=O)O)OC=O [XY-58] | – | – | Ki ([1]; Table 4, read-out: Ki): 0.036 nM; Ki ([1]; read-out: Ki, PSMA inhibition): 0.04 nM
O=CO[C@@H](CNC(=O)N[C@@H](CCC(=O)O)C(=O)O)NC(=O)CCCNC(=O)c1ccc(Br)cc1 [XY-59] | – | – | Ki ([1]; Table 4, read-out: Ki): 0.02 nM
O=CO[C@@H](CNC(=O)N[C@@H](CCC(=O)O)C(=O)O)NC(=O)CCCNC(=O)c1ccc(F)cc1 [YC-I-26, reference compound] | – | – | Ki [2]: 0.25 nM; Ki ([1]; Table 4, read-out: Ki): 0.3 nM
O=C(O)CC[C@H](NC(=O)N[C@@H](CSCc1ccc([18F])cc1)C(=O)O)C(=O)O [[^18F]DCFBC] | – | – | blood pool and salivary / lacrimal gland uptake in clinical PET imaging [3]: persistent blood pool occupancy but low salivary gland uptake
O=C(O)CC[C@H](NC(=O)N[C@@H](CCCCNC(=O)Nc1ccc([123I])cc1)C(=O)O)C(=O)O [[^124I]-MIP-1095] | – | – | blood pool and salivary / lacrimal gland uptake in clinical PET imaging [3]: rapid clearance from the blood but high uptake in salivary and lacrimal glands
O=C(O)CC[C@H](NC(=O)N[C@@H](CCCCNC(=O)Nc1ccc([131I])cc1)C(=O)O)C(=O)O [[^131I]-MIP-1095] | – | – | dose-limiting organs from absorbed dose estimates ([3]; Zechmann, 2014): salivary glands, lower large intestinal wall, and kidneys

From US10736974B2, “Scaffolds and multifunctional intermediates for imaging PSMA and cancer therapy” (THE JOHNS HOPKINS UNIVERSITY, priority 2014, dated 2020)
